Data from patent US12421254B2, “KRAS modulators and uses thereof” (Quanta Therapeutics, Inc., priority 2023, dated 2025).

Key:
[1] = biological target: GST-tagged KRAS-G12V (2-169) (Homo sapiens, UniProt P01116, G12V); test: Nucleotide exchange assay (NEA), SOS-mediated, HTRF, KRAS G12V; type: biochemical; conditions: Table 4; IC50 extracted at 90 min; 80 nM SOS
Outline: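 GST-KRAS-G12V (2-169), 0.25 nM, pre-incubated 1 h at RT with compound, then SOS1cat (564-1049) 80 nM and GTP-DY-647P1 150 nM added in HEPES pH 7.3 buffer with MgCl2 and DTT. HTRF via anti-GST Tb cryptate read over 90 min; IC50 from 4-parameter fit at 90 min, blanked to no-SOS reactions.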

[2] = biological target: GST-tagged KRAS-G12D (2-169) (Homo sapiens, UniProt P01116, G12D); test: Nucleotide exchange assay (NEA), SOS-mediated, HTRF, KRAS G12D; type: biochemical; conditions: Table 4; IC50 extracted at 30 min; 20 nM SOScat; read-out: NEA G12D IC50
Sequence of GST-tagged KRAS-G12D (2-169) (P01116 2-169 isoform P01116-2 G12D): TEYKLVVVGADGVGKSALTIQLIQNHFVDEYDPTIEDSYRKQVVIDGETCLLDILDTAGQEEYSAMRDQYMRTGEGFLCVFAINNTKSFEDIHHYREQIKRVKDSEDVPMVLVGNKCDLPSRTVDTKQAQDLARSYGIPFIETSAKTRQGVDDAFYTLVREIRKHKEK
Outline: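 Compound preincubated 1 h at RT with 0.25 nM GST-KRAS-G12D (2-169) and anti-GST Tb donor, then 20 nM SOS1cat (564-1049) and 150 nM GTP-DY-647P1 added; pH 7.3 HEPES buffer with MgCl2 and DTT. HTRF monitored at RT; % inhibition versus DMSO and no-SOS blank, 4-parameter IC50 taken at 30 min.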

[3] = test system: phospho-ERK in SW620 (KRAS-G12V) cells; test: pERK In Cell Western (ICW) assay (Method B), SW620; type: cell-based; conditions: Homo sapiens, SW-620, 3 h, Table 4
Outline: (§1)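 SW620 (KRAS-G12V), GP2D (KRAS-G12D) and AGS cells, seeded overnight, were exposed to compounds (½-log, 9-point) for 3 h at 37°C, then fixed and stained for phospho-ERK. Infrared imaging; pERK normalized to DRAQ5 DNA stain, expressed as percent of blank control, IC50 by 4-parameter fit.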

[4] = test system: phospho-ERK in GP2D (KRAS-G12D) cells; test: pERK In Cell Western (ICW) assay (Method B), GP2D; type: cell-based; conditions: GP2d, 3 h, Table 4
Outline: as §1

Sequence of GST-tagged KRAS-G12V (2-169) (P01116 2-169 isoform P01116-2 G12V): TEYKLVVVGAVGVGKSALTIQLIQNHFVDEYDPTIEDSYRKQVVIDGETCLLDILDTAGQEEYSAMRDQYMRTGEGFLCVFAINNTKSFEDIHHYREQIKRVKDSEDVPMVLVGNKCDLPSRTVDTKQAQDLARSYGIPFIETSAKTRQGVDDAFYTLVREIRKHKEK

Structure (SMILES)	IC50 [1]	IC50 [2]	IC50 [3]	IC50 [4]
C=C1CN2CCCC2(COc2nc(N3CC4(CCc5sc(N)c(C#N)c54)C3)nc(N3CCC[C@@](C)(O)C3)n2)C1 (stereo partly drawn) [Compound 55, 2-amino-1′-[4-[(3R)-3-hydroxy-3-methyl-1-piperidyl]-6-[(6-methylene-2,3,5,7-tetrahydro-1H-pyrrolizin-8-yl)methoxy]-1,3,5-triazin-2-yl]spiro[5,6-dihydrocyclopenta[b]thiophene-4,3′-azetidine]-3-carbonitrile]	< 10 nM	< 10 nM	100 to 1000 nM	10 to 100 nM
N#Cc1c(N)sc2c1C1(CC2)CN(c2nc(OCC3(CN4CCOCC4)CC3)nc(N3CCCC(C#N)C3)n2)C1 (stereo not shown) [Compound 56, 2-amino-1′-[4-(3-cyano-1-piperidyl)-6-[[1-(morpholinomethyl)cyclopropyl]methoxy]-1,3,5-triazin-2-yl]spiro[5,6-dihydrocyclopenta[b]thiophene-4,3′-azetidine]-3-carbonitrile]	10 to 100 nM	100 to 1000 nM	1000 to 20000 nM	100 to 1000 nM
CC1(C#N)CCCN(c2nc(OCC3(CN4CCOCC4)CC3)nc(N3CC4(CCc5sc(N)c(C#N)c54)C3)n2)C1 (stereo not shown) [Compound 57, 2-amino-1′-[4-(3-cyano-3-methyl-1-piperidyl)-6-[[1-(morpholinomethyl)cyclopropyl]methoxy]-1,3,5-triazin-2-yl]spiro[5,6-dihydrocyclopenta[b]thiophene-4,3′-azetidine]-3-carbonitrile]	10 to 100 nM	100 to 1000 nM	1000 to 20000 nM	1000 to 20000 nM
C[C@]1(CO)C[C@@H](O)CN1c1nc(OC[C@@]23CCCN2C[C@H](F)C3)nc(N2CC3(CCc4sc(N)c(C#N)c43)C2)n1 [Compound 58, 2-amino-1′-[4-[[(2R,8S)-2-fluoro-1,2,3,5,6,7-hexahydropyrrolizin-8-yl]methoxy]-6-[(2R,4R)-4-hydroxy-2-(hydroxymethyl)-2-methyl-pyrrolidin-1-yl]-1,3,5-triazin-2-yl]spiro[5,6-dihydrocyclopenta[b]thiophene-4,3′-azetidine]-3-carbonitrile]	10 to 100 nM	10 to 100 nM	1000 to 20000 nM	1000 to 20000 nM
C[C@@]1(CO)C[C@@H](O)CN1c1nc(OC[C@@]23CCCN2C[C@H](F)C3)nc(N2CC3(CCc4sc(N)c(C#N)c43)C2)n1 [Compound 59, 2-amino-1′-[4-[[(2R,8S)-2-fluoro-1,2,3,5,6,7-hexahydropyrrolizin-8-yl]methoxy]-6-[(2S,4R)-4-hydroxy-2-(hydroxymethyl)-2-methyl-pyrrolidin-1-yl]-1,3,5-triazin-2-yl]spiro[5,6-dihydrocyclopenta[b]thiophene-4,3′-azetidine]-3-carbonitrile]	10 to 100 nM	100 to 1000 nM	≥ 20000 nM	≥ 20000 nM
C[C@@]1(O)CCCN(c2nc(OCC3(CN4CCOCC4)CC3)nc(N3CC4(C3)c3c(sc(N)c3C#N)CC4F)n2)C1 (stereo partly drawn) [Compound 61, 2-amino-5-fluoro-1′-[4-[(3R)-3-hydroxy-3-methyl-1-piperidyl]-6-[[1-(morpholinomethyl)cyclopropyl]methoxy]-1,3,5-triazin-2-yl]spiro[5,6-dihydrocyclopenta[b]thiophene-4,3′-azetidine]-3-carbonitrile]	10 to 100 nM	< 10 nM	100 to 1000 nM	10 to 100 nM
N#CCC1C=C(F)CN(c2nc(OCC3(CN4CCOCC4)CC3)nc(N3CC4(CCc5sc(N)c(C#N)c54)C3)n2)C1 (stereo not shown) [Compound 65, 2-amino-1′-[4-[3-(cyanomethyl)-5-fluoro-3,6-dihydro-2H-pyridin-1-yl]-6-[[1-(morpholinomethyl)cyclopropyl]methoxy]-1,3,5-triazin-2-yl]spiro[5,6-dihydrocyclopenta[b]thiophene-4,3′-azetidine]-3-carbonitrile]	10 to 100 nM	100 to 1000 nM	1000 to 20000 nM	1000 to 20000 nM
C[C@@]1(O)C[C@H](O)CN(c2nc(OC[C@@]34CCCN3C[C@H](F)C4)nc(N3CC4(CCc5sc(N)c(C#N)c54)C3)n2)C1 [Compound 67, 2-amino-1′-[4-[(3R,5S)-3,5-dihydroxy-3-methyl-1-piperidyl]-6-[[(2R,8S)-2-fluoro-1,2,3,5,6,7-hexahydropyrrolizin-8-yl]methoxy]-1,3,5-triazin-2-yl]spiro[5,6-dihydrocyclopenta[b]thiophene-4,3′-azetidine]-3-carbonitrile]	10 to 100 nM	10 to 100 nM	≥ 20000 nM	100 to 1000 nM
C[C@@]1(O)CCCN(c2nc(OCC3(CN4CCOCC4)CC3)nc(N3CC4(C3)c3c(sc(N)c3C#N)C[C@@H]4F)n2)C1 [Compound 68, (5S)-2-amino-5-fluoro-1′-[4-[(3R)-3-hydroxy-3-methyl-1-piperidyl]-6-[[1-(morpholinomethyl)cyclopropyl]methoxy]-1,3,5-triazin-2-yl]spiro[5,6-dihydrocyclopenta[b]thiophene-4,3′-azetidine]-3-carbonitrile]	10 to 100 nM	< 10 nM	100 to 1000 nM	100 to 1000 nM
N#Cc1c(N)sc2c1C1(CC2)CN(c2nc(OC[C@@]34CCCN3C[C@H](F)C4)nc(N3CCCOC[C@H]3CO)n2)C1 [Compound 69, 2-amino-1′-[4-[[(2R,8S)-2-fluoro-1,2,3,5,6,7-hexahydropyrrolizin-8-yl]methoxy]-6-[(3R)-3-(hydroxymethyl)-1,4-oxazepan-4-yl]-1,3,5-triazin-2-yl]spiro[5,6-dihydrocyclopenta[b]thiophene-4,3′-azetidine]-3-carbonitrile]	10 to 100 nM	10 to 100 nM	1000 to 20000 nM	1000 to 20000 nM
C[C@@]1(O)CCCN(c2nc(OCC3(CN4CCOCC4)CC3)nc(N3CC4(C3)c3c(sc(N)c3C#N)C[C@H]4F)n2)C1 [Compound 70, (5R)-2-amino-5-fluoro-1′-[4-[(3R)-3-hydroxy-3-methyl-1-piperidyl]-6-[[1-(morpholinomethyl)cyclopropyl]methoxy]-1,3,5-triazin-2-yl]spiro[5,6-dihydrocyclopenta[b]thiophene-4,3′-azetidine]-3-carbonitrile]	< 10 nM	< 10 nM	100 to 1000 nM	100 to 1000 nM
C[C@@]1(O)CCCN(c2nc(OC[C@@]34CCCN3C[C@H](F)C4)nc(N3CC4(C3)c3c(sc(N)c3C#N)CC4F)n2)C1 (stereo partly drawn) [Compound 71, 2-amino-5-fluoro-1′-[4-[[(2R,8S)-2-fluoro-1,2,3,5,6,7-hexahydropyrrolizin-8-yl]methoxy]-6-[(3R)-3-hydroxy-3-methyl-1-piperidyl]-1,3,5-triazin-2-yl]spiro[5,6-dihydrocyclopenta[b]thiophene-4,3′-azetidine]-3-carbonitrile]	10 to 100 nM	< 10 nM	100 to 1000 nM	100 to 1000 nM
C[C@@]1(O)CCCN(c2nc(OCC3(CN4CCOCC4)CC3)nc(N3CC4(C3)SCc3sc(N)c(C#N)c34)n2)C1 [Compound 73, 2-amino-1′-[4-[(3R)-3-hydroxy-3-methyl-1-piperidyl]-6-[[1-(morpholinomethyl)cyclopropyl]methoxy]-1,3,5-triazin-2-yl]spiro[6H-thieno[2,3-c]thiophene-4,3′-azetidine]-3-carbonitrile]	< 10 nM	< 10 nM	10 to 100 nM	10 to 100 nM
